Columns and labels:
[1] = tested on: mouse embryonic fibroblasts (MEFs); assay: Colony survival assay in p53 wild-type and p53−/− MEFs; format: cell-based; conditions: MEFs that lacked p53; not seen in p53 wild-type MEFs
Protocol: FIGS. 29A-29B are graphs showing the results of a colony survival assay in which mouse embryonic fibroblasts (MEFs) were treated with increasing doses of doxorubicin or cisplatin for eight hours, rinsed twice with PBS and once with media, and re-plated at an initial density of 5,000 cells/10 cm^2 dish. After eleven days, the number of colonies on the plate was counted and normalized to the number of colonies formed by the same cell type in the absence of treatment with chemotherapeutic drugs. RNA interference using short hairpin RNAs was used with both the p53 wild-type MEFs and the p53^−/− MEFs to knock down the levels of MAPKAP kinase-2 (MK2 shRNA). Short hairpin RNAs against luciferase (luciferase shRNA) were used as a control. […] FIG. 29C is a series of Western blots using the indicated antibodies. These blots verify that p53 polypeptide, and the known p53-responsive gene product p21, is induced by DNA damage only in the p53 wild-type cells (lanes 2, 3, 5, and 6), but not in the p53^−/− cells (lanes 7-12). […]
The p53 tumor suppressor protein plays an important role in the cellular response to DNA damage by transcriptionally upregulating the Cdk inhibitor p21 to induce a G1 and G2 arrest. […] Cells were infected with lentiviruses delivering shRNAs against luciferase (control) or MK2 and analyzed 6 days later (FIG. 29C). […] Only minimal amounts of the p53 inducer protein p19ARF were detected. […]

[2] = tested on: U2OS cells; assay: FACS cell cycle analysis (PI, phospho-histone H3) in U2OS cells; format: cell-based, human; conditions: untreated U2OS cells blocked in mitosis with nocodazole (100 nM, eighteen hours)
Protocol: Asynchronous MAPKAP kinase-2 or luciferase shRNA knockdown cells were mock treated or exposed to doxorubicin for thirty hours, and cell cycle progression was monitored by FACS. In one set of experiments, the spindle poison nocodazole was added to the media three hours after addition of doxorubicin, to cause any cells progressing through the cell cycle to arrest in mitosis. DNA content was monitored by PI staining; phospho-histone-H3 staining was used as an indicator of mitotic entry. As shown in the left panels of FIG. 14A, treatment of control luciferase shRNA knockdown cells with doxorubicin led to the accumulation of cells with 4N DNA content, and a lack of phospho-histone-H3 staining in either the absence or presence of nocodazole. The cells expressing the luciferase shRNAs behaved identically to the untransfected doxorubicin-treated control U2OS cell population (FIG. 24B), with the prominent 4N DNA component and the absence of phospho-histone-H3 staining indicative of an intact G2/M checkpoint.
In contrast to the G2/M checkpoint response observed in doxorubicin-treated cells, treatment with the DNA intra-strand cross-linker cisplatin caused U2OS cells to predominantly accumulate in the G1 and S phases of the cell cycle over the subsequent thirty hours (FIG. 24C). RNA interference was used to investigate the role of MAPKAP kinase-2 in this process. […] Strikingly, when nocodazole was added three hours following cisplatin addition, the MAPKAP kinase-2 depleted cells accumulated in a 4N DNA containing peak with ˜42% of the cells staining strongly for phospho-histone H3. Identical results were obtained in cells treated with a second unrelated siRNA sequence against MAPKAP kinase-2.
FACS analysis. UV irradiation was performed at 254 nm (UV-C) using a Stratalinker 2400 (Stratagene). U2OS cells were fixed in 70% ethanol overnight at −20° C., permeabilized with PBS containing 0.2% Triton X-100 for twenty minutes at 4° C., blocked with 2% FBS in PBS, and incubated with 1 μg of anti-phospho-histone H3 per 10^6 cells for sixty minutes on ice. […]

[3] = molecular target: Chk2 (Homo sapiens, UniProt O96017); conditions: Chk1 versus Chk2; cited from earlier work
Chain of Chk2 (O96017 whole entry, species assumed): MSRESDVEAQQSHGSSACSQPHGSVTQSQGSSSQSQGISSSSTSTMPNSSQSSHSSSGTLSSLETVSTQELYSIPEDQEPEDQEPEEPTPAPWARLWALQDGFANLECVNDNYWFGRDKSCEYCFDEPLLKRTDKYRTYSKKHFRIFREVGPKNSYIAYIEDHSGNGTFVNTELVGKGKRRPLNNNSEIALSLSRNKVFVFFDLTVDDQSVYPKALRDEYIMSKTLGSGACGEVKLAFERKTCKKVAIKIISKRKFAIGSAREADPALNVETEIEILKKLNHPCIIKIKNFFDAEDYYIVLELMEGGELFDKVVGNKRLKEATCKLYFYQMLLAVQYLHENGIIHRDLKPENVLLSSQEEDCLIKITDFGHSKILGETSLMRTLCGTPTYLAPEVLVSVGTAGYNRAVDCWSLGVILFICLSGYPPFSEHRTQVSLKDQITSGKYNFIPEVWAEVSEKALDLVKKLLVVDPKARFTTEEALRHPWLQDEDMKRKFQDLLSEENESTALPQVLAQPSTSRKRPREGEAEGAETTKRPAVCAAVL

[4] = molecular target: T1, MAPKAP kinase-2 (Homo sapiens, UniProt P49137); assay: Phosphorylation of hsp-27 on Ser-82 after heat shock in U2OS cells (immunoblot); format: cell-based; design: endogenous in cells; host or cells: U2OS cells; conditions: control luciferase shRNA U2OS cells, 42° C. for two hours, 250 nM UCN-01
T1 sequence (P49137 whole entry): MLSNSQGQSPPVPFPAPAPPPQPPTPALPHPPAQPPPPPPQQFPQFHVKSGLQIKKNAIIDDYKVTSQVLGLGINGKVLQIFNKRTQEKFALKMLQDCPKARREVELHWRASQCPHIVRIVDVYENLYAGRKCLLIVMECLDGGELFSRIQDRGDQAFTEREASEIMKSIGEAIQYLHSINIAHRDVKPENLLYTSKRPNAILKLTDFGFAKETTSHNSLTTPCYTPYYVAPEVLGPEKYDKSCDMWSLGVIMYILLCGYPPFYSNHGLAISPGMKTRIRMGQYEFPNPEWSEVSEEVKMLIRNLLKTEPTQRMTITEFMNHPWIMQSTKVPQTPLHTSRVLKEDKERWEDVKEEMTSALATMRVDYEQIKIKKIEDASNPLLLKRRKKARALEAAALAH
Protocol: (§1) 14-3-3 pull-down assays, immunoblotting, and immunofluorescence. U2OS cells were lysed in lysis buffer: 50 mM Tris/HCl, pH7.8, 150 mM NaCl, 1.0% NP-40, 5 mM EDTA, 2 mM DTT, 8 μg/ml pepstatin, 8 μg/ml aprotinin, 8 μg/ml leupeptin, 2 mM Na3VO4, 10 mM NaF, 1 μM microcystin for twenty minutes at 4° C. Clarified lysates (0.5-2 mg protein) were incubated with 20 μL glutathione beads or amylose beads containing 10-20 μg 14-3-3-GST or 14-3-3-MBP, respectively, for 120 minutes at 4° C. Following washing, lysates and bead-bound proteins were analysed by SDS-PAGE, followed by transfer to PVDF membranes and immunoblotted with the indicated antibodies. For immunofluorescence experiments, U2OS cells were seeded onto 18 mm^2 coverslips, irradiated or mock-treated, fixed, extracted, and immunostained as described previously (Clapperton et al., Nat. Struct. Mol. Biol., 11:512-518, 2004).
Activation of MK2 by cisplatin, camptothecin, and doxorubicin is strikingly similar to the activation profile reported for Chk1. […] U2OS cells depleted of Chk1 using siRNA were exposed to cisplatin and doxorubicin, and analyzed for activation of MK2. […] The IC50 value we measured for Chk1 is in good agreement with previously published data. […]

[5] = tested on: Cdc25C Ser-216 phosphorylation; conditions: Chk1-depleted cells, low doses of UCN-01 (~300 nM); cited from earlier work
[6] = molecular target: T1, MAPKAP kinase-2; assay: Kinetics of in vitro phosphorylation of MK2tides by MAPKAP kinase-2; format: biochemical; design: purchased Upstate; conditions: peptide as substrate of MAPKAP kinase-2
Description: To verify the peptide library screening results, individual peptides (MK2tides) containing the optimal MAPKAP kinase-2 consensus motif LQRQLSI (SEQ ID NO: 16), or mutant versions with Ala substituted at each position in the motif, were synthesized and used for kinetic analysis (FIGS. 3B and 3C). […] The rank order of importance of key residues is Arg-3>Leu-5≈Ile+1>[…]. The optimal MK2tide had neither the lowest Km nor the highest Vmax, but rather had the highest Vmax/Km ratio, consistent with the fact that the peptide library screening approach selects substrates on the basis of optimal Vmax/Km, rather than low Km or high Vmax alone. […]
(§2) The sequences of the p38 optimal peptide and the p47phox peptide were KKAZGPQGPQSPIE (SEQ ID NO: 22) and KKAZGPQSPGSPLE (SEQ ID NO: 23), respectively. For 14-3-3 pulldowns of Cdc25B following in vitro phosphorylation by p38 or MAPKAP kinase-2, 2.0 μg of Cdc25B was incubated with 10-fold excess 14-3-3-MBP and analyzed by autoradiography. […] Samples were analyzed by SDS-PAGE followed by transfer to nitrocellulose for autoradiography and immunoblotting. The rate of p38α phosphorylation of isolated peptides and full-length p47phox proteins was determined by scintillation counting using peptide concentrations of 100, 400, and 1400 μM, and protein concentrations of 1, 5, 10 and 15 μM, with time points taken at five, ten, and twenty minutes. […]

[7] = tested on: p38 MAPK/MK2 pathway; assay: Immunoblot of p38 MAPK/MK2 activation after DNA-damaging drugs in U2OS cells; format: cell-based, human
Protocol: as §1

[8] = molecular target: p38α SAPK (Homo sapiens, UniProt Q16539); assay: Kinetics of in vitro substrate phosphorylation by p38α SAPK; format: biochemical; conditions: GST-tagged full-length protein as substrate
Chain of p38α SAPK (Q16539 whole entry): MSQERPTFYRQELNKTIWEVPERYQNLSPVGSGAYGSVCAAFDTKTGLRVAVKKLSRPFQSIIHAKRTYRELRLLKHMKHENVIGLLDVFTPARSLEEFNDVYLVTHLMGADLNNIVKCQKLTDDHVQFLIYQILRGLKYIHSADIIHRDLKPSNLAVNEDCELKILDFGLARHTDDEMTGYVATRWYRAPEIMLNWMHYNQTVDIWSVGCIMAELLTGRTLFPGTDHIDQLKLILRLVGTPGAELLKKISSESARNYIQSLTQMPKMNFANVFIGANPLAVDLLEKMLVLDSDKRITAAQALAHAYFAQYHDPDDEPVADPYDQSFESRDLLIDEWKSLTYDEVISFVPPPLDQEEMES
Description: Wild-type and mutant versions of GST-tagged full-length p47phox protein, rather than isolated peptides, were then used as substrates for in vitro phosphorylation reactions. The wild-type full-length p47phox protein was rapidly phosphorylated by p38α SAPK (FIGS. 1C and 1D). […] Simultaneous mutation of both Ser345 and Ser348 to Ala eliminated phosphorylation of p47phox by p38 SAPK altogether.
as §2, with “autoradiography. For kinetic measurements, the reactions were terminated by the addition of an equal volume of 0.5 percent phosphoric acid, and 5 μl was spotted onto p81 paper.” for “autoradiography.”

MK2 shRNA: lentivirally delivered short hairpin RNA against murine MAPKAP kinase-2 (SEQ ID NO: 26) (TCGATGCGTGTTGACTATGATTCAAGAGATCATAGTCAACACGCATCGTTTTTTC)
sensitivity to doxorubicin and cisplatin (colony survival) [1]: increased sensitivity

COC(=O)Nc1nc2ccc(C(=O)c3cccs3)cc2[nH]1 [nocodazole]
cells staining for phospho-histone H3 [2]: 42%

CN[C@@H]1C[C@H]2O[C@@](C)([C@@H]1OC)n1c3ccccc3c3c4c(c5c6ccccc6n2c5c31)C(=O)N[C@H]4O [UCN-01, 7-hydroxystaurosporin]
IC50 for Chk1 lower than that for Chk2 [3]: ~1000 fold
phosphorylation of hsp-27 on Ser-82 [4]: completely abrogated
phosphorylation of Cdc25C on Ser-216 [5]: lost

MK2tide: peptide containing the optimal MAPKAP kinase-2 consensus motif LQRQLSI (SEQ ID NO: 16)
Km value relative to the best MAPKAP kinase-2 peptide substrate known to date (HSP27-derived sequence) [6]: two-fold lower

CC[C@@]1(O)C(=O)OCc2c1cc1n(c2=O)Cc2cc3ccccc3nc2-1 [camptothecin]
time to MK2 activation (reduction in electrophoretic mobility, pThr-344) ([7]; U2OS cells, 10 μM drug): within four hour

C[S+]([O-])c1ccc(-c2nc(-c3ccncc3)c(-c3ccc(F)cc3)[nH]2)cc1 (stereo not shown) [SB203580]
MK2 activation by DNA damaging agents [7]: completely abolished MK2 activation

B1: wild-type p47phox: GST-tagged full-length p47phox protein, cytosolic component of NADPH oxidase, used as p38 SAPK substrate (protein)
chain: MGDTFIRHIALLGFEKRFVPSQHYVYMFLVKWQDLSEKVVYRRFTEIYEFHKTLKEMFPIEAGAINPENRIIPHLPAPKWFDGQRAAENRQGTLTEYCSTLMSLPTKISRCPHLLDFFKVRPDDLKLPTDNQTKKPETYLMPKDGKSTATDITGPIILQTYRAIANYEKTSGSEMALSTGDVVEVVEKSESGWWFCQMKAKRGWIPASFLEPLDSPDETEDPEPNYAGEPYVAIKAYTAVEGDEVSLLEGEAVEVIHKLLDGWWVIRKDDVTGYFPSMYLQKSGQDVSQAQRQIKRGAPPRRSSIRNAHSIHQRSRKRLSQDAYRRNSVRFLQQRRRQARPGPQSPGSPLEEERQTQRSKPQPAVPPRPSADLILNRCSESTKRKLASAV
modifications: left off: a dimerising Fc or GST
notes: GST-tagged full-length p47phox protein, cytosolic component of NADPH oxidase, used as p38 SAPK substrate
Vmax for p38 SAPK phosphorylation [8]: 36.6 nmol/min/µg
Km ([8]; read-out: Km for p38 SAPK phosphorylation): 6 µM

Reference: US8440610B2, “Mapkap kinase-2 as a specific target for blocking proliferation of P53-defective cells” (Massachusetts Institute of Technology, priority 2004, dated 2013)
